Measured values reported in patent US5384128A, “Method of and compounds for treatment for cystic fibrosis” (University of Alabama Research Foundation, priority 1993, dated 1995).

Experiments:
T84 cells [1] = test: 125I- efflux assay (Cl- channel activity), T84 cells; type: cell-based; conditions: for potency in stimulating 125I- efflux relative to DM: equimolar concentrations
Excerpt: (§1) Forskolin or cAMP-stimulated Cl^- channel activity is a standard measurement of the activity of Cl^- channels represented by CFTR, while ionomycin or Ca^++ ionophore-stimulated Cl^- channel activity is a measure of the activity of Ca^++ -regulated Cl^- channels which arc different from those represented by CFTR. […] In contrast Ca^++ -regulated Cl^- channels operate normally in CF cells and are opened by ionomycin just as they are in T84 cells.
(§2) The cells employed were (1) T84 cells (ATCC Accession No. CCL 248) (2) CFPAC-1 cells (ATCC Accession No. CRL 1918) (a newly established continuous line of pancreatic duct adenocarcinoma cells from a CF patient which is homozygous for the deletion of phenylalanine in the 508 position of CFTR, the mutation found in 70% of CF patients), (3) clones of CFPAC-1 cells which have been transduced with a retroviral vector (PLJ) containing (PLJ-CFTR-CFPAC) or lacking (PLJ-CFPAC) cDNA for functional CFTR, and (4) 2CFSMEo-, a continuous cell line derived from the tracheal submucosal gland of a CF patient whose exact genotype is unknown but which expresses the phenotype of defective Cl^- channel permeability characteristic of CF.
(§3) In general, cells were washed with 1 ml of efflux medium (140 mM NaCl, 1 mM Ca gluconate, 1 mM Mg gluconate, 5 mM KH2 PO4, 10 mM Tris-Hepes pH 7.4) four times and incubated with ^125 I- (3μl Na ^125 I=12 μC) in 1 ml of the same medium containing 5 mM D-glucose for 1 hour at 37° C. to load the cells with ^125 I. The cells were then washed quickly five times with 1 ml of the efflux medium at 22° C. to remove any ^125 I- that had not been taken up by the cells. One ml of the efflux medium at 22° C. was then added to initiate efflux and left in contact with the cells for 1 minute, before being removed and replaced with another 1 ml of medium. This replacement procedure was carried out 2-5 times before addition of the appropriate surfactant and/or agonist in 1 ml of the same medium to one culture dish (experimental) while to another dish 1 ml of medium without surfactant and/or agonist was added (control). Medium with or without surfactant and/or agonist was replaced at 0.5 minute intervals until the 10 minute time point when the replacement time was prolonged to 1 minute intervals. The samples of the replacement media were counted in a gamma counter to determine the amount of ^125 I- effluxing from the cells into the medium in each time interval. After 15 minutes when measurement of efflux was completed the cells were extracted for 30 minutes with 1 ml 0.2N NaOH, 0.15% SDS and the extract counted to determine the residual ^125 I- remaining in the cells.
(§4) The data is expressed as ^125 I- remaining in the cells (set at 100% at the initiation of efflux) and plotted against the time of efflux in minutes and/or as the ln % of ^125 I- remaining in the cells, plotted against the time of efflux in minutes. Expressing the data in the latter form facilitates calculation of the apparent rate constant for ^125 I- efflux using the equation r=[ln (R1)-ln (R2)]/(t1-t2) where R1 and R2 are the percent of counts remaining in the cell layer at times t1 and t2 respectively.

CF cells = test: 125I- efflux / Cl- channel opening in CF cells; type: cell-based
Experimental: as §1
In general, cells were washed with 1 ml of efflux medium (140 mM NaCl, 1 mM Ca gluconate, 1 mM Mg gluconate, 5 mM KH2 PO4, 10 mM Tris-Hepes pH 7.4) four times and incubated with ^125 I- (3μl Na ^125 I=12 μC) in 1 ml of the same medium containing 5 mM D-glucose for 1 hour at 37° C. to load the cells with ^125 I. The cells were then washed quickly five times with 1 ml of the efflux medium at 22° C. to remove any ^125 I- that had not been taken up by the cells. […] The samples of the replacement media were counted in a gamma counter to determine the amount of ^125 I- effluxing from the cells into the medium in each time interval. After 15 minutes when measurement of efflux was completed the cells were extracted for 30 minutes with 1 ml 0.2N NaOH, 0.15% SDS and the extract counted to determine the residual ^125 I- remaining in the cells.

CFPAC-1 cells = test: 125I- efflux assay, CFPAC-1 cells; type: cell-based, human
Excerpt: as §2, §3, §4

PLJ-CFTR-CFPAC-10 = test: 125I- efflux assay, CFPAC-1 cells transduced with wild-type CFTR cDNA; type: cell-based, human; conditions: vector containing wild-type CFTR cDNA (PLJ-CFTR-CFPAC-10)
Excerpt: as §2
(§5) In general, cells were washed with 1 ml of efflux medium (140 mM NaCl, 1 mM Ca gluconate, 1 mM Mg gluconate, 5 mM KH2 PO4, 10 mM Tris-Hepes pH 7.4) four times and incubated with ^125 I- (3μl Na ^125 I=12 μC) in 1 ml of the same medium containing 5 mM D-glucose for 1 hour at 37° C. to load the cells with ^125 I. The cells were then washed quickly five times with 1 ml of the efflux medium at 22° C. to remove any ^125 I- that had not been taken up by the cells. One ml of the efflux medium at 22° C. was then added to initiate efflux and left in contact with the cells for 1 minute, before being removed and replaced with another 1 ml of medium. […] The samples of the replacement media were counted in a gamma counter to determine the amount of ^125 I- effluxing from the cells into the medium in each time interval. After 15 minutes when measurement of efflux was completed the cells were extracted for 30 minutes with 1 ml 0.2N NaOH, 0.15% SDS and the extract counted to determine the residual ^125 I- remaining in the cells.
(§6) The data is expressed as ^125 I- remaining in the cells (set at 100% at the initiation of efflux) and plotted against the time of efflux in minutes and/or as the ln % of ^125 I- remaining in the cells, plotted against the time of efflux in minutes. […]

PLJ-CFPAC-10 = test: 125I- efflux assay, CFPAC-1 cells transduced with vector lacking CFTR cDNA; type: cell-based, human
Excerpt: as §2, §5, §6

T84 cells [2] = conditions: human
[3] = Effective dosage (general statement); type: cell-based; conditions: maltoside with alkyl chain of 12, 13 or 14 carbon atoms
2CFSMEo- = test: 125I- efflux assay, airway epithelial cell line of a CF patient; type: cell-based, human; conditions: 2CFSMEo- cells
Excerpt: as §2, §5, §6

CFPAC-1 = conditions: CFPAC-1, homozygous ΔF508; cited from earlier work
CFTR in T84 cells = conditions: cited from earlier work
T84 cells [4] = conditions: comparison statement; cited from earlier work

Compound: C[C@@H]1CC[C@@]2(OC1)O[C@H]1[C@@H](O)[C@H]3[C@@H]4CC[C@H]5C[C@@H](O[C@@H]6O[C@H](CO)[C@H](O[C@@H]7O[C@H](CO)[C@@H](O)[C@H](O[C@@H]8OC[C@@H](O)[C@H](O)[C@H]8O)[C@H]7O[C@@H]7O[C@H](CO)[C@H](O)[C@H](O[C@@H]8O[C@H](CO)[C@@H](O)[C@H](O)[C@H]8O)[C@H]7O)[C@H](O)[C@H]6O)[C@H](O)C[C@]5(C)[C@H]4CC[C@]3(C)[C@H]1[C@@H]2C [Digitonin, digitonin, reference compound]
- stimulation of 125I- efflux (T84 cells [1]; T84 cells, 50 μM): pronounced effect

Compound: C[S+](C)[O-] [Dimethylsulfoxide (DMSO), Dimethylsulfoxide, reference compound]
- effect in stimulating 125I- efflux (T84 cells [1]; T84 cells, 17.6 mM): no effect

Compound: C[C@H](CCC(=O)O)C[C@H](C)C[C@H](C)C(=O)/C=C(\O)[C@H](C)C[C@H](C)C/C=C/[C@@H](C)[C@@H](O)[C@@H](C)[C@@H](O)C[C@@H]1CC[C@@](C)([C@H]2CC[C@@](C)([C@@H](C)O)O2)O1 [ionomycin, reference compound]
- Opening of Ca++-regulated Cl- channels (CF cells): opened
- stimulation of 125I- efflux (T84 cells [1]; T84 cells, 1 μM ionomycin): stimulation
- response in 125I- efflux assay (CFPAC-1 cells): responds briskly

Compound: CCCCCCCCCCCCO[C@@H]1O[C@H](CO)[C@@H](O[C@H]2O[C@H](CO)[C@@H](O)[C@H](O)[C@H]2O)[C@H](O)[C@H]1O [DM, dodecylmaltoside]
- Cl- channel activity as measured by increased 125I- efflux (PLJ-CFTR-CFPAC-10): stimulate
- Cl- channel activity as measured by increased 125I- efflux (PLJ-CFPAC-10): stimulate
- cause of 125I- efflux stimulation: cell lysis (T84 cells [1]; T84 cells): not due to lysis of the cells
- reversibility of response upon removal of the agent (T84 cells [1]; T84 cells): reversible
- rate of 125I- efflux during exposure, compared to control rate (T84 cells [1]; T84 cells, 100 μM or 200 μM DM): increased rate
- rate of 125I- efflux with DM remaining during efflux phase after preincubation, compared to same concentration without preincubation (T84 cells [1]; T84 cells, 100 μM or 200 μM DM): comparable
- rate of 125I- efflux after removal of agent (T84 cells [1]; T84 cells, 100 μM or 200 μM DM, after 2 min exposure): reverts to the control rate
- stimulation of 125I- efflux, dose dependence (T84 cells [1]; T84 cells, 10-400 μM): dose-dependent stimulation
- rate of 125I- efflux on further exposure to forskolin in presence of DM (T84 cells [1]; T84 cells, 80-100 μM DM plus 20 μM forskolin): additional increase
- MNTC (T84 cells [2]): < 150 µM
- effective dosage [3]: 10 to 400 µM

Compound: dodecylsucrose [DS]
- activity as Cl- channel activator on altering saccharide moiety, compared to DM at 100 μM (T84 cells [1]; T84 cells): markedly reduces the activity
- potency relative to DM, tri DM and tetra DM (T84 cells [1]; T84 cells): less potent than DM, tri DM and tetra DM
- stimulation of 125I- efflux (T84 cells [1]; T84 cells): stimulate
- effect on 125I- efflux relative to DM at 100 μM (T84 cells [1]; T84 cells, 100 μM): significantly smaller effect than DM

Compound: CCCCCCCCO[C@@H]1O[C@H](CO)[C@@H](O)[C@H](O)[C@H]1O [octylglucoside]
- concentration at which an appreciable effect in stimulating 125I- efflux is shown (T84 cells [1]; T84 cells): ≥ 500 µM
- potency relative to DM, tri DM and tetra DM (T84 cells [1]; T84 cells): less potent than DM, tri DM and tetra DM
- stimulation of 125I- efflux (T84 cells [1]; T84 cells): stimulate

Compound: CCCCCCCCCCCCCCO[C@@H]1O[C@H](CO)[C@@H](O[C@@H]2O[C@@H](CO)[C@H](O)[C@@H](O)[C@@H]2O)[C@H](O)[C@H]1O (stereo in doubt) [tetra DM, tetradecylmaltoside]
- Cl- channel activity as measured by increased 125I- efflux (PLJ-CFTR-CFPAC-10): stimulate
- stimulation of 125I- efflux, dose dependence (2CFSMEo-): dose-dependent stimulation
- Cl- channel activity as measured by increased 125I- efflux (PLJ-CFPAC-10): stimulate
- potency as Cl- channel activator among alkylmaltosides tested (T84 cells [1]): most potent
- cause of 125I- efflux stimulation: cell lysis (T84 cells [1]; T84 cells): not due to lysis of the cells
- potency change on lengthening alkyl chain, DM as reference standard (T84 cells [1]; T84 cells): markedly increases the potency
- stimulation of 125I- efflux, dose dependence (T84 cells [1]; T84 cells, 10-100 μM): dose-dependent stimulation
- potency in stimulating 125I- efflux relative to DM (T84 cells [1]; T84 cells): more potent than DM
- effective dosage [3]: 10 to 400 µM
- increase in 125I- efflux, dose dependence (CFPAC-1 cells): dose-dependent increase

Compound: CCCCCCCCCCCCO[C@@H]1O[C@H](CO)[C@@H](O)[C@H](O)[C@H]1O [DG, dodecylglucoside]
- activity as Cl- channel activator on altering saccharide moiety, compared to DM at 100 μM (T84 cells [1]; T84 cells): markedly reduces the activity
- effect in stimulating 125I- efflux (T84 cells [1]; T84 cells, 100 μM): minimal effect

Compound: CCCCCCCCCCCCCO[C@@H]1O[C@H](CO)[C@@H](OC2OC(CO)C(O)C(O)C2O)[C@H](O)[C@H]1O (stereo in doubt) [tri DM, tridecylmaltoside]
- Cl- channel activity as measured by increased 125I- efflux (PLJ-CFTR-CFPAC-10): stimulate
- stimulation of 125I- efflux, dose dependence (2CFSMEo-): dose-dependent stimulation
- Cl- channel activity as measured by increased 125I- efflux (PLJ-CFPAC-10): stimulate
- potency as Cl- channel activator among alkylmaltosides tested (T84 cells [1]): most potent
- cause of 125I- efflux stimulation: cell lysis (T84 cells [1]; T84 cells): not due to lysis of the cells
- potency change on lengthening alkyl chain, DM as reference standard (T84 cells [1]; T84 cells): markedly increases the potency
- stimulation of 125I- efflux, dose dependence (T84 cells [1]; T84 cells, 10-100 μM): dose-dependent stimulation
- potency in stimulating 125I- efflux relative to DM (T84 cells [1]; T84 cells): more potent than DM
- effective dosage [3]: 10 to 400 µM
- increase in 125I- efflux, dose dependence (CFPAC-1 cells): dose-dependent increase

Compound: C=C[C@@]1(C)CC(=O)[C@]2(O)[C@@]3(C)[C@@H](O)CCC(C)(C)[C@@H]3[C@H](O)[C@H](OC(C)=O)[C@@]2(C)O1 [forskolin]
- activation of the Cl- channel (CFPAC-1): inability of the channel to be activated
- activation of CFTR (CFTR in T84 cells): activate CFTR in T84 cells
- 125I- efflux in response to agonist (CF cells): not stimulated
- stimulation of 125I- efflux (T84 cells [1]; T84 cells, 20 μM forskolin): stimulation
- response in 125I- efflux assay (CFPAC-1 cells): unresponsive

Compound: O=C(O)c1cc([N+](=O)[O-])ccc1NCCCc1ccccc1 [NPPB, reference compound]
- blocking of Cl- channels (2CFSMEo-): blocked
- 125I- efflux inhibition (T84 cells [1]; T84 cells, blocker of some Cl- channels): inhibits

Compound: CCCCCCCCCCCCOS(=O)(=O)[O-].[Na+] [sodium dodecyl sulfate (SDS), sodium dodecyl sulfate]
- release upon cell lysis (T84 cells [4]): precipitous release
